From patent US6335350B1, “Acetamide and substituted acetamide-containing thiourea inhibitors of herpes viruses” (American Home Products Corporation, priority 1998, dated 2002) come the findings set out here.

One experiment concerns HCMV wild-type. The experiment is described as follows: HCMV yield assay. In kind it is cell-based, human cytomegalovirus. The settings on record: Human betaherpesvirus 5, Fibroblast, human foreskin fibroblasts; read-out: IC50 Ug/ml HCMV. In short, it runs like this: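 HCMV wild-type infected human foreskin fibroblast monolayers at MOI typically 0.2 with varying compound concentrations; virus yield harvested at 3 days post-infection and titered on fibroblasts without inhibitor, plaques counted at 2 weeks. IC50 or IC90 = compound amount reducing yield titer by 50% or 90%.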

A further experiment deals with HSV-1. The experiment is described as follows: HSV Antiviral (ELISA) Assay. In kind it is cell-based, herpes simplex virus type 1. The settings on record: Vero cells, HSV-1; for IC50: Human alphaherpesvirus 1, Vero, read-out: IC50 Ug/ml HSV. In short, it runs like this: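 Vero cells in DMEM/2% FBS pretreated with compound 30 min before HSV-1 infection (MOI 0.006), then ~24 h at 37 °C. Viral gD detected by ELISA with β-galactosidase secondary and 4-methylumbelliferyl-galactoside (ex 365/em 450 nm); IC50 from fluorescence versus untreated infected cells.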
On the technique in general: In an ELISA, binding on a coated surface is turned into a signal by an enzyme label.

Another experiment has as its system VZV strain Ellen. The experiment is described as follows: VZV Antiviral (ELISA) Assay. Format: cell-based, varicella-zoster virus. The settings on record: Human alphaherpesvirus 3, Fibroblast, human foreskin fibroblast cells; for IC50: read-out: IC50 Ug/ml VZV; for inhibition at 10 µg/mL: read-out: % inhibition 10 ug/ml VZV, 10 ug/ml. In short, it runs like this: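 HFF cells infected with VZV Ellen at low multiplicity (<0.1) overnight were seeded at 3.5×10^4 cells/well in DMEM with 2% FBS plus compound and incubated three days at 37° C., 5% CO2. Viral replication was read by ELISA against glycoprotein II with β-galactosidase fluorogenic readout (ex 365/em 450 nm); IC50 relative to no-compound fluorescence.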

Each structure is given as a SMILES string. In brackets after ≈: the same amount, converted by molar mass.

For `CC(=O)Nc1ccc(NC(=S)Nc2ccc(C(C)O)c(Cl)c2)cc1` (centres unmarked) [Example 862, N-(4-{3-[3-Chloro-4-(1-hydroxy-ethyl)-phenyl]-thioureido}-phenyl)-acetamide], the IC50 with HCMV wild-type was 2 µg/mL (≈ 5.5 µM); with HSV-1 it was more than 10 µg/mL; with VZV strain Ellen, more than 10 µg/mL. The inhibition at 10 µg/mL in the experiment with VZV strain Ellen was 10%.

Take `CC(=O)Nc1ccc(NC(=S)Nc2ccc(CCO)c(Cl)c2)cc1` [Example 864, N-(4-{3-[3-Chloro-4-(2-hydroxy-ethyl)-phenyl]-thioureido}-phenyl)-acetamide]: the IC50 in the experiment on HCMV wild-type, in the experiment on HSV-1 and in the experiment with VZV strain Ellen was more than 10 µg/mL in each case. Also, the inhibition at 10 µg/mL in the experiment on VZV strain Ellen came to 21%.

With `COc1c(NC(=S)Nc2ccc(NC(C)=O)cc2)cc(Cl)c(C)c1Cl` [Example 876, N-{4-[3-(3,5-Dichloro-2-methoxy-4-methyl-phenyl)-thioureido]-phenyl}-acetamide], in the experiment with HCMV wild-type, the IC50 is 1 µg/mL (≈ 2.51 µM). Further, in the experiment on HSV-1, the “IC50 Ug/ml HSV” value is given as 10 Ug/ml. Moreover, in the experiment on VZV strain Ellen, the IC50 was more than 10 µg/mL and the inhibition at 10 µg/mL was determined as 58%.

Consider `COc1c(C)cc(NC(=S)Nc2ccc(NC(C)=O)cc2)cc1Cl` [Example 877, N-{4-[3-(3-Chloro-4-methoxy-5-methyl-phenyl)-thioureido]-phenyl}-acetamide], for which the IC50 is 2 µg/mL (≈ 5.5 µM) in the experiment with HCMV wild-type, 30 µg/mL (≈ 82.4 µM) in the experiment with HSV-1 and more than 10 µg/mL in the experiment on VZV strain Ellen. In addition, the inhibition at 10 µg/mL with VZV strain Ellen amounted to 15%.

With `CC(=O)Nc1ccc(NC(=S)Nc2ccccc2[N+](=O)[O-])cc1` [Example 878, N-{4-[3-(2-Nitro-phenyl)-thioureido]-phenyl}-acetamide], the figures for the IC50 with HCMV wild-type, with HSV-1 and in the experiment with VZV strain Ellen were 40 µg/mL (≈ 121 µM), 50 µg/mL (≈ 151 µM) and more than 10 µg/mL, respectively. The inhibition at 10 µg/mL in the experiment on VZV strain Ellen came out at 23%.

On to `CC(=O)Nc1ccc(NC(=S)Nc2ccc([N+](=O)[O-])cc2)cc1` [Example 879, N-{4-[3-(4-Nitro-phenyl)-thioureido]-phenyl}-acetamide], for which the IC50 was more than 10 µg/mL in the experiment with HCMV wild-type, more than 50 µg/mL in the experiment with HSV-1 and more than 10 µg/mL in the experiment with VZV strain Ellen. The inhibition at 10 µg/mL with VZV strain Ellen stood at 16%.

As for `COc1ccc(Cl)c(NC(=S)Nc2ccc(NC(C)=O)cc2)c1` [Example 881, N-{4-[3-(2-Chloro-5-methoxy-phenyl)-thioureido]-phenyl}-acetamide], the IC50 was more than 50 µg/mL with HCMV wild-type, 40 µg/mL (≈ 114 µM) in the experiment with HSV-1 and more than 10 µg/mL with VZV strain Ellen. The inhibition at 10 µg/mL with VZV strain Ellen came out at 12%.

Turning to `CC(=O)Nc1ccc(NC(=S)Nc2cc(Cl)c(OCC(N)=O)c(Cl)c2)cc1` [Example 882, 2-{4-[3-(4-Acetylamino-phenyl)-thioureido]-2,6-dichloro-phenoxy}-acetamide], the IC50 was more than 50 µg/mL in the experiment with HCMV wild-type, more than 50 µg/mL in the experiment on HSV-1 and more than 10 µg/mL with VZV strain Ellen. Also, the inhibition at 10 µg/mL in the experiment with VZV strain Ellen turned out to be 15%.

`COC(=O)COc1c(Cl)cc(NC(=S)Nc2ccc(NC(C)=O)cc2)cc1Cl` [Example 883, {4-[3-(4-Acetylamino-phenyl)-thioureido]-2,6-dichloro-phenoxy}-acetic acid methyl ester]: the IC50 in the experiment on HCMV wild-type was more than 10 µg/mL; with HSV-1 it was 50 µg/mL (≈ 113 µM); with VZV strain Ellen, more than 10 µg/mL. The inhibition at 10 µg/mL with VZV strain Ellen turned out to be 17%.

Turning to `CCOC(=O)COc1c(Cl)cc(NC(=S)Nc2ccc(NC(C)=O)cc2)cc1Cl` [Example 884, {4-[3-(4-Acetylamino-phenyl)-thioureido]-2,6-dichloro-phenoxy}-acetic acid ethyl ester], the IC50 with HCMV wild-type is more than 10 µg/mL; in the experiment with HSV-1, more than 50 µg/mL; in the experiment on VZV strain Ellen, more than 10 µg/mL. For the same molecule, the inhibition at 10 µg/mL in the experiment on VZV strain Ellen came out at 21%.

With `CC(=O)Nc1ccc(NC(=S)Nc2cc(Cl)c(Oc3ccccc3)c(Cl)c2)cc1` [Example 885, N-{4-[3-(3,5-Dichloro-4-phenoxy-phenyl)-thioureido]-phenyl}-acetamide], the IC50 with HCMV wild-type was more than 10 µg/mL; in the experiment with HSV-1, 15 µg/mL (≈ 33.6 µM); in the experiment on VZV strain Ellen it was more than 10 µg/mL. In the experiment on VZV strain Ellen, the inhibition at 10 µg/mL is 45%.

With `CC(=O)Nc1ccc(NC(=S)Nc2cc(Cl)c(OCC#N)c(Cl)c2)cc1` [Example 886, N-(4-{3-[3,5-Dichloro-4-(2-nitrilo-ethoxy)-phenyl]-thioureido}-phenyl)-acetamide], the results for the IC50 in the experiment on HCMV wild-type, in the experiment with HSV-1 and with VZV strain Ellen were 10 µg/mL (≈ 24.4 µM), 25 µg/mL (≈ 61.1 µM) and more than 15 µg/mL, respectively. Also, the inhibition at 10 µg/mL in the experiment on VZV strain Ellen is 50%.

For the molecule `CC(=O)Nc1ccc(NC(=S)Nc2cc(Cl)c(OCC(=O)OC(C)(C)C)c(Cl)c2)cc1` [Example 887, {4-[3-(4-Acetylamino-phenyl)-thioureido]-2,6-dichloro-phenoxy}-acetic acid tert-butyl ester], the IC50 in the experiment with HCMV wild-type is more than 10 µg/mL; with HSV-1, 45 µg/mL (≈ 92.9 µM); in the experiment on VZV strain Ellen, more than 10 µg/mL. For the same molecule, the inhibition at 10 µg/mL with VZV strain Ellen came out at 38%.

Regarding `CC(=O)Nc1ccc(NC(=S)Nc2ccc(C)c(Cl)c2)cc1` [Example 889, N-{4-[3-(3-Chloro-4-methyl-phenyl)-thioureido]-phenyl}-acetamide], the IC50 was 1.2 µg/mL (≈ 3.59 µM) in the experiment on HCMV wild-type, 2 µg/mL (≈ 5.99 µM) in the experiment with HSV-1 and more than 10 µg/mL in the experiment on VZV strain Ellen. Also, the inhibition at 10 µg/mL with VZV strain Ellen was found to be 1%.

For `CC(=O)Nc1ccc(NC(=S)Nc2cc(Cl)ccc2C)cc1` [Example 890, N-{4-[3-(5-Chloro-2-methyl-phenyl)-thioureido]-phenyl}-acetamide], the IC50 in the experiment on HCMV wild-type was 35 µg/mL (≈ 105 µM); with HSV-1 it was 20 µg/mL (≈ 59.9 µM); in the experiment on VZV strain Ellen, more than 10 µg/mL. The inhibition at 10 µg/mL in the experiment with VZV strain Ellen is 20%.

As for `CC(=O)Nc1ccc(NC(=S)Nc2cc(Cl)c(C)c(Cl)c2)cc1` [Example 892, N-{4-[3-(3,5-Dichloro-4-methyl-phenyl)-thioureido]-phenyl}-acetamide], the IC50 in the experiment with HCMV wild-type is 1 µg/mL (≈ 2.72 µM); in the experiment with HSV-1, 10 µg/mL (≈ 27.2 µM); in the experiment with VZV strain Ellen it was more than 10 µg/mL. Moreover, the inhibition at 10 µg/mL with VZV strain Ellen stood at 25%.

For `COc1c(I)cc(NC(=S)Nc2ccc(NC(C)=O)cc2)c(OC)c1I` [Example 893, N-{4-[3-(3,5-Diiodo-2,4-dimethoxy-phenyl)-thioureido]-phenyl}-acetamide], the IC50 with HCMV wild-type worked out at 7 µg/mL (≈ 11.7 µM); in the experiment with HSV-1, 20 µg/mL (≈ 33.5 µM); in the experiment with VZV strain Ellen it was 2.5 µg/mL (≈ 4.19 µM). The inhibition at 10 µg/mL in the experiment on VZV strain Ellen is 76%.

Regarding `COc1c(Br)cc(NC(=S)Nc2ccc(NC(C)=O)cc2)c(OC)c1Br` [Example 894, N-{4-[3-(3,5-Dibromo-2,4-dimethoxy-phenyl)-thioureido]-phenyl}-acetamide], the figures for the IC50 in the experiment on HCMV wild-type, with HSV-1 and with VZV strain Ellen were 7 µg/mL (≈ 13.9 µM), 12 µg/mL (≈ 23.8 µM) and more than 10 µg/mL, respectively. In addition, in the experiment on VZV strain Ellen, the inhibition at 10 µg/mL turned out to be 56%.

For the molecule `COc1ccc(NC(=S)Nc2ccc(NC(C)=O)cc2)c(OC)n1` [Example 896, N-{4-[3-(2,6-Dimethoxy-pyridin-3-yl)-thioureido]-phenyl}-acetamide], the IC50 in the experiment on HCMV wild-type was more than 50 µg/mL; in the experiment on HSV-1, 12 µg/mL (≈ 34.6 µM); with VZV strain Ellen, more than 10 µg/mL. Also, the inhibition at 10 µg/mL with VZV strain Ellen amounted to 17%.

`CC(=O)Nc1ccc(NC(=S)Nc2cc(Cl)c(OCCOC(C)=O)c(Cl)c2)cc1` [Example 897, Acetic acid 2-{4-[3-(4-acetylamino-phenyl)-thioureido]-2,6-dichloro-phenoxy}-ethyl ester]: the IC50 with HCMV wild-type was more than 10 µg/mL; in the experiment on HSV-1 it was 40 µg/mL (≈ 87.7 µM); in the experiment with VZV strain Ellen it was more than 10 µg/mL. In the experiment with VZV strain Ellen, the inhibition at 10 µg/mL stood at 33%.
